The values that follow come from the supplement of paper PMC10307832.

Common to all, as to assay: relative viability (nuclei count vs DMSO), 5 days (fraction); higher = more cells survive
Compound in assay [1]: CC1=C(CC(=O)O)c2cc(F)ccc2/C1=C\c1ccc([S+](C)[O-])cc1 [Sulindac] + O=C(c1cc(Cc2n[nH]c(=O)c3ccccc23)ccc1F)N1CCN(C(=O)C2CC2)CC1 [Olaparib] (partner 8 µM)
The gist of the method: (§1)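 Lung cancer cell lines were seeded in 1536-well plates and dosed by pin tool the next day, with either a single drug or a fixed anchor-drug dose combined with five library-drug doses (not always all listed) spaced in √10 steps. Five days later, one step fixed the cells and stained their nuclei (final 0.05% Triton X-100, 1% formaldehyde, 1 ug/ml Hoechst), and nuclei were counted on 4× images. Relative viability is the nuclei count in treated wells divided by the count in vehicle wells, and each value is the median of duplicate plates.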

Compound in assay [2]: CN[C@@H]1C[C@H]2O[C@@](C)([C@@H]1OC)n1c3ccccc3c3c4c(c5c6ccccc6n2c5c31)C(=O)NC4 [Staurosporine] + CC(=O)c1c(C)c2cnc(Nc3ccc(N4CCNCC4)cn3)nc2n(C2CCCC2)c1=O [Palbociclib] (partner 0.5 µM)
An outline of the steps: as §1

Compound in assay [3]: CN[C@@H]1C[C@H]2O[C@@](C)([C@@H]1OC)n1c3ccccc3c3c4c(c5c6ccccc6n2c5c31)C(=O)NC4 [Staurosporine] + C[C@]1(O)C[C@@H](c2nc(-c3ccc4ccc(-c5ccccc5)nc4c3)c3c(N)nccn32)C1 [Linsitinib] (partner 1 µM)
An outline of the steps:
as §1

Compound in assay [4]: O=c1[nH]cc(F)c(=O)[nH]1 [5-Fluorouracil] + CC(=O)c1c(C)c2cnc(Nc3ccc(N4CCNCC4)cn3)nc2n(C2CCCC2)c1=O [Palbociclib] (partner 0.5 µM)
An outline of the steps:
as §1

Take UMC-11: the relative viability in assay [1] (first compound 0.08 µM) came to 0.463; in assay [1] (first compound 0.253 µM), 0.342; in assay [1] (first compound 0.8 µM), 0.42; in assay [1] (first compound 2.53 µM), 0.339; in assay [1] (first compound 8 µM) it was 0.332; in assay [2] (first compound 0.005 µM), 0.335. The relative viability in assay [2] (first compound 0.05 µM) amounted to 0.201; in assay [2] (first compound 0.1581 µM) it was 0.152; in assay [2] (first compound 0.5 µM), 0.158; in assay [3] (first compound 0.005 µM) it was 0.901; in assay [3] (first compound 0.01581 µM), 0.569; in assay [3] (first compound 0.05 µM), 0.583. In addition, the relative viability in assay [3] (first compound 0.1581 µM) worked out at 0.126; in assay [3] (first compound 0.5 µM) it was 0.0837; in assay [4] (first compound 0.02 µM), 0.344; in assay [4] (first compound 0.2 µM), 0.364; in assay [4] (first compound 0.6325 µM), 0.309.
